{"source": "paper PMC2246479", "about": "“A phase 1 and pharmacokinetic study of didox: a ribonucleotide reductase inhibitor” (British Journal of Cancer, 1988)", "key": {"metastatic carcinoma": {"test_system": "metastatic carcinoma", "experiment": "Clinical response in the phase 1 study", "assay_type": "in vivo, human", "conditions": "34 patients, any dosage level"}, "[1]": {"test_system": "patients with unresponsive metastatic carcinoma", "conditions": "in vivo"}, "[2]": {"conditions": "in vivo"}, "ribonucleotide reductase": {"target": "ribonucleotide reductase", "conditions": "cited from earlier work"}, "a number of cell lines": {"test_system": "a number of cell lines", "conditions": "continuous drug exposure, no reference given; cited from earlier work"}, "[3]": {"test_system": "pools of deoxyribonucleotides", "conditions": "cited from earlier work"}, "L1210 leukaemia": {"test_system": "L1210 leukaemia", "design": "method as in Van't Riet et al., 1979", "conditions": "L1210 leukaemia bearing female mice; ref Van't Riet et al., 1979; cited from earlier work"}, "NCI tumour panel": {"test_system": "NCI tumour panel", "design": "method as in Elford & Van't Riet, 1985", "conditions": "ref Elford & Van't Riet, 1985; cited from earlier work"}, "murine tumours": {"test_system": "murine tumours", "design": "method as in Elford et al., 1984", "conditions": "ref Elford et al., 1984; cited from earlier work"}, "[4]": {"design": "method as in Van't Riet, personal communication", "conditions": "rats; ref Van't Riet, personal communication; cited from earlier work"}, "mice": {"test_system": "mice", "conditions": "single dose, ref CRC Sponsored Toxicity Report, 1984; cited from earlier work"}}, "data": [{"smiles": "O=C(NO)c1ccc(O)c(O)c1", "note": "[didox, N,3-4 trihydroxy-benzamide]", "values": [{"measurement": "Clinical responses", "setting": "metastatic carcinoma", "result": "No clinical responses"}, {"measurement": "Maximum tolerated dose / dose that can be safely given", "setting": "[1]; human, iv", "result": 6, "unit": "g m-2"}, {"measurement": "Patients with severe diarrhoea (grade 4)", "setting": "[1]", "result": 2, "unit": "patients"}, {"measurement": "Total white cell count after didox", "setting": "[1]", "result": "> 20 x 109 1-"}, {"measurement": "Dose above which severe nausea and vomiting almost universal", "setting": "[1]; iv", "result": "above 7 g m- 2"}, {"measurement": "Dose at which dose limiting toxicity was encountered", "setting": "[1]; iv", "result": 7.5, "unit": "g m-2"}, {"measurement": "Dose at which minor toxicity was initially noted", "setting": "[1]; iv", "result": "2,304 mg m 2"}, {"measurement": "Steady state volume of distribution", "setting": "[2]; human", "result": "27.9 ± 6.2", "unit": "lm-2"}, {"measurement": "Total body Clearance", "setting": "[2]; human", "result": "0.71 ± 0.19", "unit": "Imin- 1 m-2"}, {"measurement": "t1/2 alpha", "setting": "[2]; human", "result": 5.2, "unit": "min"}, {"measurement": "t1/2 beta", "setting": "[2]; human", "result": 41.3, "unit": "min"}, {"measurement": "Time to peak level of didox after injection", "setting": "[2]; human, iv", "result": "≤ 5", "unit": "min"}, {"measurement": "Administered dose excreted unchanged in the urine", "setting": "[2]; iv", "result": "Less than 10%"}, {"measurement": "Time within which the majority of urinary excretion occurred", "setting": "[2]; iv", "result": "≤ 6", "unit": "h"}, {"measurement": "IC50", "setting": "ribonucleotide reductase; enzyme study, no reference given, read-out: Concentration causing 50% inhibition of the target enzyme", "result": 30, "unit": "µM"}, {"measurement": "Inhibition of ribonucleotide reductase compared to hydroxyurea", "setting": "ribonucleotide reductase; ref Elford et al., 1979", "result": "greater inhibition"}, {"measurement": "Growth inhibitory concentration in vitro", "setting": "a number of cell lines", "result": "up to 100 uM"}, {"measurement": "Depletion of the pools of all deoxyribonucleotides", "setting": "[3]; ref Elford et al., 1981", "result": "over 50%"}, {"measurement": "Anti-neoplastic activity", "setting": "L1210 leukaemia", "result": "anti-neoplastic activity"}, {"measurement": "Activity in the NCI tumour panel", "setting": "NCI tumour panel", "result": "active"}, {"measurement": "Interaction with doxorubicin and cyclophosphamide", "setting": "murine tumours", "result": "act synergistically"}, {"measurement": "Major metabolites formed", "setting": "[4]", "result": "3,4-dihydroxybenzamide, 3-hydroxy-4-methoxybenzo- hydroxamic acid and 3-methoxy-4-hydroxy- benzohydroxamic acid"}, {"measurement": "LD10", "setting": "mice", "result": 643, "unit": "mg/kg"}]}, {"smiles": "NC(=O)NO", "note": "[hydroxyurea, reference compound]", "values": [{"measurement": "Inhibition of ribonucleotide reductase in vitro", "setting": "ribonucleotide reductase; ref Elford, 1968", "result": "weak inhibitor"}, {"measurement": "Deoxyribonucleotide pools depleted", "setting": "[3]; ref Thelander & Reichard 1979", "result": "only depleted pools of dGTP and dATP"}]}]}
